In experiment [1] the test system is BMPR II. The experiment can be described thus: BMPR II on OK cells, immunostain and Western blot. It is filed as cell-based, opossum. From the text:
BMPR I was not found in OK cells sample, BMPR II was found on OK cell. […] Both FIGS. 6A and 6B indicate that kaempferol increases the quantity of BMPR II on OK cell.
(A western blot detects proteins with antibodies after separation by electrophoresis.)

In experiment [2] the test system is HHF cells (human heart fibroblast). The experiment in a line: Direct effect of compound on fibroblast proliferation. It is filed as cell-based. The note with it: medium incubated without kidney cells; 70 nM kaempferol; 3 days. On the procedure: (§1) OK cell, MC 3T3 E1 and HHF cells at 2×10^4/ml (0.1 ml) were added into 96 well plates, with various concentration of kaempferol was applied. After the cells were cultured for 3 days, cell growth was examined. The preparation of OKM and CM: OK cells at 6×10^4/ml (3 ml) were incubated in 6 well plates over night. After the medium was removed, the fresh medium with or without 70 nM kaempferol was added. The control medium (CM) was prepared under the same condition, without OK cells. After incubation for 24 hour, all medium were collected for MC 3T3 E1 and HFF cell growth experiments. MC 3T3 E1 and HFF cell at 1×10^5/ml were added (20 μl) into 96 well plates. In addition, 80 μl of OKM, CM and fresh culture medium with and without kaempferol were applied.

Experiment [3] deals with human heart fibroblast (HHF/HFF). The experiment in a line: Fibroblast proliferation in OK cell conditioned medium (OKM). It is filed as cell-based. Particulars: OK cells incubated 24 hours with compound; medium on human heart fibroblast; 3 days. On the procedure: (§2) In this example, OK cells were used as the kidney tubular cell. OK cells at 6×10^4ml (3 ml) were added into 6 wells plate and various concentrations of flavonol, flavonol glycosides, apigenin and isokaempferol were applied. At the same time, the control culture medium (CM) with the same condition as above but without cells was prepared. After 24 hours incubation, the medium was collected for osteoblast culture. The OK cell growth was examined as discussed above. The preparation of OKM and CM: OK cells at 6×10^4/ml (3 ml) were incubated in 6 well plates over night. After the medium was removed, the fresh medium with or without 70 nM kaempferol was added. The control medium (CM) was prepared under the same condition, without OK cells. After incubation for 24 hour, all medium were collected for MC 3T3 E1 and HFF cell growth experiments. MC 3T3 E1 and HFF cell at 1×10^5/ml were added (20 μl) into 96 well plates. In addition, 80 μl of OKM, CM and fresh culture medium with and without kaempferol were applied.

Experiment [4] deals with BMP7. The experiment can be described thus: BMP7 in kaempferol conditioned OKM, immune-precipitation and Western blot. The format is cell-based, opossum. The note with it: Western blot; not been repeated yet. From the text:
(§3) Detail of Immune-Precipitation and Detail of Western Blot Used Standard Methods and Anti-BMP 2/4 and 7.

The subject of experiment [5] is BMP2/4. The experiment can be described thus: BMP2/4 in kaempferol conditioned OKM, immune-precipitation and Western blot. The format is cell-based, opossum. The note with it: Western blot; not been repeated yet.
From the text: as §3

The subject of experiment [6] is opossum kidney (OK) cell. The experiment can be described thus: Renal tubular (OK) cell proliferation, CellTiter 96 at OD570. It is filed as cell-based. Particulars: compound added to OK cells, 0-60 nM (0-79 nM) or various concentrations, three days incubation (24 hours in Example 3.2). How it is done: Flavonol Increased Renal Tubular Cell Proliferation Ok cells at 1×10^4/ml (0.1 ml) were added into 96 wells plate. Several flavonol ? Fisetin, ? Kaempferol, ? quercetin a ? ? icariin or the control flavonoid (which are not flavonol) such as apigenin and kaempferol-3-methyl ether were added to make the final concentration at 0-60 nM. (0-79 nM)
After three days incubation, the cell growth was examined with CellTiter 96 (Non-Radioactive Cell Proliferation Assay kit) (Promega) at OD570 nm. The higher OD, the higher the numbers of living cells. (FIG. 2.)
OK cell, MC 3T3 E1 and HHF cells at 2×10^4/ml (0.1 ml) were added into 96 well plates, with various concentration of kaempferol was applied. After the cells were cultured for 3 days, cell growth was examined.
Preparation of OKM and CM: OK cells at 2×10^4/ml (0.1 ml) mixed with various concentrations of kaempferol were incubated in 96 well plate. The medium made of the same condition as above without OK cells was also incubated in the 96 well plates. After 24 hour, the mediums were collected. The OK cell growth was examined.

In experiment [7] the test system is P63. The experiment can be described thus: P63 (63 kDa protein) in kaempferol conditioned OKM, over-exposed anti-BMP2/4 Western blot. It is filed as cell-based, opossum. Particulars: over-exposed film; not been repeated yet. The source says:
Detail of Immune-Precipitation and Detail of Western Blot Used Standard Methods and Anti-BMP 2/4 and 7. 3). […] According to the instruction from the manufacture, anti-BMP2/4 antibody may react with BMP8, 9 and 10 or other proteins. The P63 may be BMP 8, 9, 10 or another protein related to the BMP2/4.

In experiment [8] the test system is MC 3T3 E1 cell (osteoblast). The experiment can be described thus: Direct effect of compound on osteoblast proliferation. The format is cell-based. Particulars: medium incubated without kidney cells; 70 nM or various concentrations; 3 days. How it is done:
as §1

The test system of experiment [9] is MC 3T3 E1 cell (osteoblast). The experiment can be described thus: Osteoblast proliferation in human kidney tubular cell (HK-2) conditioned medium (HKM). It is filed as cell-based. Particulars: HK-2 cells, 70 nM kaempferol, 24 hours; medium on MC 3T3 E1 for 3 days. On the procedure:
Human kidney tubular cells (HK-2) with the concentration at 1×10^5/ml (1 mL) grew in 24 well plate overnight. The cells in the wells were washed by 1 mL of PBS three times. Fresh culture medium (80 μL) without FBS but contained 0 and 70 nM kaempferol were added. The same medium without cells also prepared as above. After the samples were cultured for 24 hours, the medium was collected and named respectively 70 […] 0CM. They were used for osteoblast and fibroblast culture. MC 3T3 E1 and HFF cell at 1×10^5/ml were added (20 μl) into 96 wells plate. In addition, 80 μl of 70 […] 0CM were applied.

The subject of experiment [10] is MC 3T3 E1 cell (osteoblast). The experiment can be described thus: Osteoblast proliferation in OK cell conditioned medium (OKM). It is filed as cell-based. Particulars: OK cells incubated 24 hours with compound, 80 μl medium on MC 3T3 E1, 3 days. On the procedure: as §2, with “above. In this example, the osteoblast was the MC 3T3 E1 cell. MC 3T3 E1 at 1×10^5/ml (20 μl) was added into 96 wells plate. Additionally, 80 μL of OKM or CM were recruited. After 3 days incubation, the osteoblast growth was examined as discussed above. […] OK cells at 2×10^4/ml (0.1 ml) mixed with various concentrations of kaempferol were incubated in 96 well plate. The medium made of the same condition as above without OK cells was also incubated in the 96 well plates. After 24 hour, the mediums were collected. The OK cell growth was examined. MC 3T3 E1 cells at 1×10^5/ml (20 μl) were applied into 96 well plate along with OKM and CM (80 μl). After 3 days incubation, the cell numbers were examined.” for “above.”

For experiment [11] the following is noted: acute renal ischemia, unilateral uretheral obstruction, diabetic nephropathy, lupus nephritis models; cited from earlier work.
The conditions of experiment [12]: animal models; cited from earlier work.

“Also recorded” adds a separate entry of the source.

For the molecule `O=c1c(O)c(-c2ccc(O)cc2)oc2cc(O)cc(O)c12` [Kaempferol], the “quantity of BMPR II on OK cells (Western blot)” value in experiment [1] (Western blot with anti-BMPR II) is “increased the quantity of BMPR II on OK cells”. In experiment [1] (immunostain with anti-BMP receptor II), the “density of BMPR II on OK cells (immunostain)” value was “increased the density of BMPR II on OK cells”. Moreover, the “fibroblast (HHF) proliferation in control medium (CM) or fresh medium containing compound” value in experiment [2] was “did not increase human fibroblast proliferation; also recorded: did not promote MC 3T3 E1 and HHF cell proliferation”. In addition, the “fibroblast proliferation in compound conditioned-OKM” value (“fibroblast proliferation” below) in experiment [3] is “also did not promote HHF cell proliferation”. The “quantity of BMP7 in OKM” value in experiment [4] is “increased by dose response of kaempferol; also recorded: increased in dose response to kaempferol concentration”. Moreover, the “quantity of BMP2/4 in OKM” value in experiment [5] is reported as “increased by dose response of kaempferol”. In addition, the “OK cell proliferation (optic density)” value in experiment [6] was “only increased OK cell proliferation”; in [6] (listed as kaempferol), “significantly increased; also recorded: showed dose response aspect”. Also, the “quantity of P63 in OKM” value in experiment [7] was “increased with dose response of kaempferol; also recorded: also increased with the dose of kaempferol”. Also, in experiment [8], the “MC 3T3 E1 proliferation in control medium (CM) or fresh medium containing compound” value was “did not promote MC 3T3 E1 and HHF cell proliferation”. In addition, the “MC 3T3 E1 proliferation in kaempferol conditioned HKM compared with 0HKM” value in experiment [9] was “increased the promotion; also recorded: additionally increases the promotion”. In addition, the “osteoblast (MC 3T3 E1) proliferation in compound conditioned-OKM compared with control OKM” value (“osteoblast … compared with control OKM” below) was “increasing osteoblast proliferation with a dose response manner; also recorded: additionally promoted MC 3T3 E1 cell proliferation” in [10] and “significantly increased compared with that in the control OKM” in experiment [10] (listed as kaempferol).
Turning to `O=c1cc(-c2ccc(O)cc2)oc2cc(O)cc(O)c12` [Apigenin, apigenin], the “fibroblast proliferation” value in experiment [3] is reported as “do not increase human heard fibroblast proliferation”. For the same molecule, the “OK cell proliferation (optic density)” value is on record as “did not increase OK cell proliferation” in experiment [6] and “showed no effect” in experiment [6] (listed as apigenin). For the same molecule, the “osteoblast … compared with control OKM” value in experiment [10] was “did not increase osteoblast proliferation”.
On to `COc1c(-c2ccc(O)cc2)oc2cc(O)cc(O)c2c1=O` [isokaempferol, kaempferol-3-methyl ether], for which the “fibroblast proliferation” value in [3] is given as “do not increase human heard fibroblast proliferation”. Also, the “OK cell proliferation (optic density)” value in experiment [6] was “did not increase OK cell proliferation”; in [6] (listed as kaempferol-3-methyl ether), “showed no effect”. Besides, in [10], the “osteoblast … compared with control OKM” value is “did not increase osteoblast proliferation”.

B1: BMP-7: Bone Morphogenic Protein 7, secreted protein (protein, UniProt P18075 293-431, looked up)
Bone morphogenetic protein 7: STGSKQRSQNRSKTPKNQEALRMANVAENSSSDQRQACKKHELYVSFRDLGWQDWIIAPEGYAAYYCEGECAFPLNSYMNATNHAIVQTLVHFINPETVPKPCCAPTQLNAISVLYFDDSSNVILKKYRNMVVRACGCH
Consider B1, for which the “prevention of renal failure” value in [11] is “prevent renal failure”. The “effect on osteoporosis associated with renal failure” value in experiment [12] is “benefit”.

Values taken from patent publication US20080009451A1, “Applications of kidney secreted bone growth factor and pharmaceutical use of flavonol and flavonol glycosides for stimulating the secretion of kidney secreted bone growth factor” (priority 2005, published 2008).
